Key:
[1] = system: maternal sera (antibodies); assay: ELISA peptide-binding of maternal sera (Example 6); parameters: species or system human; conditions: for Number of Non-Transmitters which bound to peptide / Percent of Non-Transmitters which bound to peptide: N = 12; for Number of Transmitters which bound to peptide / Percent of Transmitters which bound to peptide: N = 4
Text: A total of 86 maternal sera samples obtained from patients of the Hospital of the University of Pennsylvania during the third trimester of pregnancy were used in this study 58 (67%) were non-transmitters and 28 (33%) were transmitters. This is approximately consistent with the national average (i.e. a rate of transmission between 25-30%). Transmission status was based upon serological or molecular diagnosis of children (at an age of greater than 15 months) born to these mothers. Because of the constraints on the volume of serum available for many of these samples, not all sera were analyzed with all the peptides. However, each sera sample was run with at least 40 peptides.
These peptides are of an average length of 16 amino acids and covered the entire external as well as the transmembrane glycoprotein of HIV-1. Peptide binding was analyzed by ELISA essentially as described in Example 3.
The results of one study, using some of the peptides identified above among others, is provided in Table 12, which illustrates the number and percent of non-transmitters which bound to the tested peptide. The percentage designation refers to the percentage of sera samples which bound to a particular peptide. A value of greater than 0% means that at least one of the samples bound to the particular peptides.

[2] = system: maternal HIV+ sera (antibodies); assay: RIA / ELISA binding of maternal HIV+ sera to gp120 and gp41 peptides (Example 3); parameters: species or system human
Method in brief: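 Maternal sera, diluted 1:50 and 1:500, were bound overnight at 4°C to peptides immobilized at 10 μg/ml (pH 9.6 carbonate) and blocked with 1% BSA. Read-out was ¹²⁵I-labelled anti-human IgG counts or HRP-TMB OD450. Signal with peptide minus without was expressed relative to seronegative serum.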

[3] = Serum No. 1, Non-Transmission Group
[4] = Serum No. 2, Non-Transmission Group
[5] = Serum No. 3, Non-Transmission Group
[6] = Serum No. 4, Transmission Group
[7] = Serum No. 5, Transmission Group
[8] = Serum No. 6, Non-Transmission Group
[9] = Serum No. 7, Non-Transmission Group
[10] = Serum No. 8, Non-Transmission Group
[11] = Serum No. 9, Non-Transmission Group
[12] = Serum No. 10, Transmission Group
[13] = Serum No. 11, Non-Transmission Group
[14] = Serum No. 12, Non-Transmission Group
[15] = Serum No. 13, Transmission Group
[16] = Serum No. 14, Transmission Group
[17] = Serum No. 15, Transmission Group
[18] = Serum No. 16, Non-Transmission Group
[19] = Serum No. 17, Non-Transmission Group
[20] = Serum No. 18, Non-Transmission Group
[21] = Serum No. 19, Transmission Group
[22] = Serum No. 20, Non-Transmission Group

41-11: gp41 peptide, amino acids 541-564, HIV strain MN, SEQ ID NO: 157 (QARQLLSGIVQQQNNLLRAIEAQQ) [Peptide 41-11]
Number of Non-Transmitters which bound to peptide [1]: 0 | Percent of Non-Transmitters which bound to peptide [1]: 0% | Number of Transmitters which bound to peptide [1]: 0 | Percent of Transmitters which bound to peptide [1]: 0%

41-13: gp41 peptide, amino acids 616-632, HIV strain BRU, SEQ ID NO: 153 (NASWSNKSLEQIWNNMT) [Peptide 41-13]
Number of Non-Transmitters which bound to peptide [1]: 0 | Percent of Non-Transmitters which bound to peptide [1]: 0% | Number of Transmitters which bound to peptide [1]: 0 | Percent of Transmitters which bound to peptide [1]: 0%

VTRIVELLGRRGWEALKYWW [Peptide 57]
Binding of maternal HIV+ serum to peptide (sera/NHS ratio) [2, 3]: - (specific OD450 or cpm of sera sample binding to peptide divided by the specific OD450 or cpm of NHS sample binding to peptide, which value is less than 2) | Binding of maternal HIV+ serum to peptide (sera/NHS ratio) [2, 4]: - (specific OD450 or cpm of sera sample binding to peptide divided by the specific OD450 or cpm of NHS sample binding to peptide, which value is less than 2) | Binding of maternal HIV+ serum to peptide (sera/NHS ratio) [2, 5]: - (specific OD450 or cpm of sera sample binding to peptide divided by the specific OD450 or cpm of NHS sample binding to peptide, which value is less than 2) | Binding of maternal HIV+ serum to peptide (sera/NHS ratio) [2, 6]: - (specific OD450 or cpm of sera sample binding to peptide divided by the specific OD450 or cpm of NHS sample binding to peptide, which value is less than 2) | Binding of maternal HIV+ serum to peptide (sera/NHS ratio) [2, 7]: - (specific OD450 or cpm of sera sample binding to peptide divided by the specific OD450 or cpm of NHS sample binding to peptide, which value is less than 2) | Binding of maternal HIV+ serum to peptide (sera/NHS ratio) [2, 8]: - (specific OD450 or cpm of sera sample binding to peptide divided by the specific OD450 or cpm of NHS sample binding to peptide, which value is less than 2) | Binding of maternal HIV+ serum to peptide (sera/NHS ratio) [2, 9]: - (specific OD450 or cpm of sera sample binding to peptide divided by the specific OD450 or cpm of NHS sample binding to peptide, which value is less than 2) | Binding of maternal HIV+ serum to peptide (sera/NHS ratio) [2, 10]: ++ (which value is greater than 3) | Binding of maternal HIV+ serum to peptide (sera/NHS ratio) [2, 11]: - (specific OD450 or cpm of sera sample binding to peptide divided by the specific OD450 or cpm of NHS sample binding to peptide, which value is less than 2) | Binding of maternal HIV+ serum to peptide (sera/NHS ratio) [2, 12]: - (specific OD450 or cpm of sera sample binding to peptide divided by the specific OD450 or cpm of NHS sample binding to peptide, which value is less than 2) | Binding of maternal HIV+ serum to peptide (sera/NHS ratio) [2, 13]: - (specific OD450 or cpm of sera sample binding to peptide divided by the specific OD450 or cpm of NHS sample binding to peptide, which value is less than 2) | Binding of maternal HIV+ serum to peptide (sera/NHS ratio) [2, 14]: - (specific OD450 or cpm of sera sample binding to peptide divided by the specific OD450 or cpm of NHS sample binding to peptide, which value is less than 2) | Binding of maternal HIV+ serum to peptide (sera/NHS ratio) [2, 15]: - (specific OD450 or cpm of sera sample binding to peptide divided by the specific OD450 or cpm of NHS sample binding to peptide, which value is less than 2) | Binding of maternal HIV+ serum to peptide (sera/NHS ratio) [2, 16]: - (specific OD450 or cpm of sera sample binding to peptide divided by the specific OD450 or cpm of NHS sample binding to peptide, which value is less than 2) | Binding of maternal HIV+ serum to peptide (sera/NHS ratio) [2, 17]: - (specific OD450 or cpm of sera sample binding to peptide divided by the specific OD450 or cpm of NHS sample binding to peptide, which value is less than 2) | Binding of maternal HIV+ serum to peptide (sera/NHS ratio) [2, 18]: - (specific OD450 or cpm of sera sample binding to peptide divided by the specific OD450 or cpm of NHS sample binding to peptide, which value is less than 2) | Binding of maternal HIV+ serum to peptide (sera/NHS ratio) [2, 19]: - (specific OD450 or cpm of sera sample binding to peptide divided by the specific OD450 or cpm of NHS sample binding to peptide, which value is less than 2) | Binding of maternal HIV+ serum to peptide (sera/NHS ratio) [2, 20]: - (specific OD450 or cpm of sera sample binding to peptide divided by the specific OD450 or cpm of NHS sample binding to peptide, which value is less than 2) | Binding of maternal HIV+ serum to peptide (sera/NHS ratio) [2, 21]: - (specific OD450 or cpm of sera sample binding to peptide divided by the specific OD450 or cpm of NHS sample binding to peptide, which value is less than 2) | Binding of maternal HIV+ serum to peptide (sera/NHS ratio) [2, 22]: + (which value is between 2 to 3)

YDTEVHNVWATHACV [Peptide 94]
Number of maternal sera binding to peptide ([2]; 20 maternal sera): two | Binding of maternal sera to peptide (in words) ([2]; Example 3): Several maternal serum samples had reactivity | Binding of maternal HIV+ serum to peptide (sera/NHS ratio) [2, 3]: ++ (which value is greater than 3) | Binding of maternal HIV+ serum to peptide (sera/NHS ratio) [2, 4]: - (specific OD450 or cpm of sera sample binding to peptide divided by the specific OD450 or cpm of NHS sample binding to peptide, which value is less than 2) | Binding of maternal HIV+ serum to peptide (sera/NHS ratio) [2, 5]: ++ (which value is greater than 3) | Binding of maternal HIV+ serum to peptide (sera/NHS ratio) [2, 6]: - (specific OD450 or cpm of sera sample binding to peptide divided by the specific OD450 or cpm of NHS sample binding to peptide, which value is less than 2) | Binding of maternal HIV+ serum to peptide (sera/NHS ratio) [2, 7]: - (specific OD450 or cpm of sera sample binding to peptide divided by the specific OD450 or cpm of NHS sample binding to peptide, which value is less than 2) | Binding of maternal HIV+ serum to peptide (sera/NHS ratio) [2, 8]: - (specific OD450 or cpm of sera sample binding to peptide divided by the specific OD450 or cpm of NHS sample binding to peptide, which value is less than 2) | Binding of maternal HIV+ serum to peptide (sera/NHS ratio) [2, 9]: - (specific OD450 or cpm of sera sample binding to peptide divided by the specific OD450 or cpm of NHS sample binding to peptide, which value is less than 2) | Binding of maternal HIV+ serum to peptide (sera/NHS ratio) [2, 10]: - (specific OD450 or cpm of sera sample binding to peptide divided by the specific OD450 or cpm of NHS sample binding to peptide, which value is less than 2) | Binding of maternal HIV+ serum to peptide (sera/NHS ratio) [2, 11]: - (specific OD450 or cpm of sera sample binding to peptide divided by the specific OD450 or cpm of NHS sample binding to peptide, which value is less than 2) | Binding of maternal HIV+ serum to peptide (sera/NHS ratio) [2, 12]: - (specific OD450 or cpm of sera sample binding to peptide divided by the specific OD450 or cpm of NHS sample binding to peptide, which value is less than 2) | Binding of maternal HIV+ serum to peptide (sera/NHS ratio) [2, 13]: - (specific OD450 or cpm of sera sample binding to peptide divided by the specific OD450 or cpm of NHS sample binding to peptide, which value is less than 2) | Binding of maternal HIV+ serum to peptide (sera/NHS ratio) [2, 14]: - (specific OD450 or cpm of sera sample binding to peptide divided by the specific OD450 or cpm of NHS sample binding to peptide, which value is less than 2) | Binding of maternal HIV+ serum to peptide (sera/NHS ratio) [2, 15]: - (specific OD450 or cpm of sera sample binding to peptide divided by the specific OD450 or cpm of NHS sample binding to peptide, which value is less than 2) | Binding of maternal HIV+ serum to peptide (sera/NHS ratio) [2, 16]: - (specific OD450 or cpm of sera sample binding to peptide divided by the specific OD450 or cpm of NHS sample binding to peptide, which value is less than 2) | Binding of maternal HIV+ serum to peptide (sera/NHS ratio) [2, 17]: - (specific OD450 or cpm of sera sample binding to peptide divided by the specific OD450 or cpm of NHS sample binding to peptide, which value is less than 2) | Binding of maternal HIV+ serum to peptide (sera/NHS ratio) [2, 18]: - (specific OD450 or cpm of sera sample binding to peptide divided by the specific OD450 or cpm of NHS sample binding to peptide, which value is less than 2) | Binding of maternal HIV+ serum to peptide (sera/NHS ratio) [2, 19]: - (specific OD450 or cpm of sera sample binding to peptide divided by the specific OD450 or cpm of NHS sample binding to peptide, which value is less than 2) | Binding of maternal HIV+ serum to peptide (sera/NHS ratio) [2, 20]: - (specific OD450 or cpm of sera sample binding to peptide divided by the specific OD450 or cpm of NHS sample binding to peptide, which value is less than 2) | Binding of maternal HIV+ serum to peptide (sera/NHS ratio) [2, 21]: - (specific OD450 or cpm of sera sample binding to peptide divided by the specific OD450 or cpm of NHS sample binding to peptide, which value is less than 2) | Binding of maternal HIV+ serum to peptide (sera/NHS ratio) [2, 22]: - (specific OD450 or cpm of sera sample binding to peptide divided by the specific OD450 or cpm of NHS sample binding to peptide, which value is less than 2) | Number of binding maternal sera from the transmission group ([2]; vertical transmission group (7 sera)): neither

From patent US5556744A, “Methods and compositions for diagnosing and treating certain HIV infected patients” (The Trustees of the University of Pennsylvania, priority 1994, dated 1996)
